# Test results from patent US9890185B2, “Urea derivatives useful as kinase inhibitors” (Respivert Limited, priority 2013, dated 2018).
# Columns and labels:
# [1] = system: PBMCs; experiment: IL-2 release in CD3/CD28 stimulated PBMC cells (assay c); type: cell-based; conditions: Homo sapiens, read-out: IC50 Values for Inhibition of Cytokine Release, PBMCs IL-2
# Outline: (§1)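 Healthy-donor PBMCs (density-gradient isolated) stimulated on plates pre-coated with anti-CD3 (0.3 μg/mL) and anti-CD28 (3 μg/mL), with compound, for 3 days under normal culture conditions. IL-2 and IFN gamma in supernatants measured by sandwich ELISA; IC50 from dose-response curve.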
# [2] = system: PBMCs; experiment: LPS-induced IL-8 release in PBMC cells (assay b); type: cell-based, human; conditions: Homo sapiens, PBMC; LPS-stimulated PBMCs; read-out: IC50 Values for Inhibition of Cytokine Release, PBMCs IL-8
# Outline: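 Cytokines (TNFα, IL-8) in supernatants were quantified by sandwich ELISA after a 24 h challenge with 1 ng/mL E. coli LPS at 37° C, 5% CO2. Healthy-donor PBMCs had been exposed to compound for 2 h beforehand. IC50 values were fitted from the concentration-response curves.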
# [3] = biological target: p38 MAPK α (Homo sapiens (Human), UniProt Q16539); experiment: KINOMEscan enzyme binding assay (p38 MAPKα); conditions: KINOMEscan technology; read-out: Dissociation Constant, p38 MAPK α
# Chain of p38 MAPK α (Q16539 whole entry): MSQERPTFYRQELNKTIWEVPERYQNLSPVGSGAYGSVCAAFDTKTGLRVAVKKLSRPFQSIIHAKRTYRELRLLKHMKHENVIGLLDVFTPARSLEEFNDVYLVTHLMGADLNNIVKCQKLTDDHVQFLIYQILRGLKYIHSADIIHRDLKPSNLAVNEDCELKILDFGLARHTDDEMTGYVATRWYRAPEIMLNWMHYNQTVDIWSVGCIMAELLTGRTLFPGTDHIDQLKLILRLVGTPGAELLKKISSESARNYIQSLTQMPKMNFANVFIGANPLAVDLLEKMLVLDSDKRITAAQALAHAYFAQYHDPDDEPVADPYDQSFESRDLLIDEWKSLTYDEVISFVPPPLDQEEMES
# Description: (§2) Kinase enzyme binding activities of compounds disclosed herein may be determined using a proprietary assay which measures active site-directed competition binding to an immobilized ligand (Fabian, M. A. et al., Nature Biotechnol., 2005, 23:329-336). These assays may be conducted by DiscoverX (formerly Ambit; San Diego, Calif.). The percentage inhibition produced by incubation with a test compound may be calculated relative to the non-inhibited control.
# [4] = system: HT29 cells; experiment: IL-1β-induced IL-8 release in HT29 cells (assay d); type: cell-based; conditions: Homo sapiens, HT-29; IL-1β-stimulated HT29 cells; read-out: IC50 Values for Inhibition of Cytokine Release, HT29 cells IL-8
# Description: HT29 cells, a human colon adenocarcinoma cell line, are plated in a 96 well plate (24 hrs) and pre-treated with compounds at the desired concentration for 2 hours before addition of 5 ng/mL of IL-1β (Abcam) for 24 hours. Supernatants are harvested for IL-8 quantification by Sandwich ELISA (Duo-set, R&D System). The IC50 is determined from the dose response curve.
# [5] = biological target: Lck (Homo sapiens (Human), UniProt P06239); experiment: KINOMEscan enzyme binding assay (Lck); conditions: KINOMEscan technology; read-out: Dissociation Constant, Lck
# Chain of Lck (P06239 whole entry): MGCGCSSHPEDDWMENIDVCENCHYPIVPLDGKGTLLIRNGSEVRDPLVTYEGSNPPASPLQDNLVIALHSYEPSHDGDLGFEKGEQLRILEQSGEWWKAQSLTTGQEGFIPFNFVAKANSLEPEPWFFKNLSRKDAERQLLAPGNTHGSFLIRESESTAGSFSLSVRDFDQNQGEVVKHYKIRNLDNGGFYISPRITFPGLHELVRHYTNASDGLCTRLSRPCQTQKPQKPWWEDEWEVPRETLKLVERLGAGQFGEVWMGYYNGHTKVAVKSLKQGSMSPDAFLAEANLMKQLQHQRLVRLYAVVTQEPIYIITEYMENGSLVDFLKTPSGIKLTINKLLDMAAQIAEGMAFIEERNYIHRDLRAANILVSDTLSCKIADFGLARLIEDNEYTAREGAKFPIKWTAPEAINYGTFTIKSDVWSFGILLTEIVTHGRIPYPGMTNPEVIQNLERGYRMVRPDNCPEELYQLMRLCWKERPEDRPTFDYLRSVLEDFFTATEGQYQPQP
# Description: as §2
# [6] = system: PBMCs; experiment: IFN gamma release in CD3/CD28 stimulated PBMC cells (assay c); type: cell-based; conditions: Homo sapiens, read-out: IC50 Values for Inhibition of Cytokine Release, PBMCs IFNγ
# Outline: as §1
# [7] = biological target: c-Src (Homo sapiens (Human), UniProt P12931); experiment: c-Src enzyme inhibition (FRET, Z-LYTE); type: biochemical
# Chain of c-Src (P12931 whole entry, looked up): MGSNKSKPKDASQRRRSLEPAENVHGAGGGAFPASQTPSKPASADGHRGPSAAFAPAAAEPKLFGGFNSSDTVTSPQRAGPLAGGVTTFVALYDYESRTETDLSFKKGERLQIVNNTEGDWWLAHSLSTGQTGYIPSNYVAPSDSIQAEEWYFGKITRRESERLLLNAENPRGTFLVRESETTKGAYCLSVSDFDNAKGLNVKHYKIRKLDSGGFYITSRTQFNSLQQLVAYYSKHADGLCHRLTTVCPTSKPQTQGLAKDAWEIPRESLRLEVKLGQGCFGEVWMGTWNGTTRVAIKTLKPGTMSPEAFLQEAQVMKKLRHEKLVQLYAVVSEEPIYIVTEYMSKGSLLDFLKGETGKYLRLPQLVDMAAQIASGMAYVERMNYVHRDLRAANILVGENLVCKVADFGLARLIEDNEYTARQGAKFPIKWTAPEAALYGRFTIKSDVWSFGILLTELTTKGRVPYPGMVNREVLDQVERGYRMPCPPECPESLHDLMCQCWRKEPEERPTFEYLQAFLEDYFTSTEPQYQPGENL
# Outline: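 First, compound and enzyme incubate 2 hr at room temperature. Next, FRET peptide (8 μM added solution) and ATP go in for 1 hr, using an 800 μM solution for c-Src and 60 μM for Syk. Finally protease develops for 1 hr; IC50 is fitted to inhibition versus concentration.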
# [8] = system: TNBS-induced colitis; experiment: TNBS-induced colitis in mice (in vivo assay iv); parameters: species or system BDF1 mice; TNBS Ulcer grade / TNBS LP inflammation: scale not given here; conditions: SMEDDS vehicle; for Activity in in vivo model of colonic inflammation (histopathology analysis) / Inflammatory cell infiltrate in the reticular and laminar propria zone: TNBS colitis over 2 days; for Ulcer grade and epithelial repair compared to the vehicle control: dosed orally at 5 mg/kg, 2 days; for TNBS LP inflammation / TNBS Ulcer grade: mice, 5 mg/kg orally, conducted over 2 days, histopathology
# Description: Non-fasted, 10-12 week old, male BDF1 mice are dosed by oral gavage twice daily with either vehicle (5 mL/kg), reference item (Budesonide 2.5 mg/kg) or test compound (1 or 5 mg/kg) one day before (Day −1) stimulation of the inflammatory response by treatment with 2,4,6-trinitrobenzenesulphonic acid (TNBS) (15 mg/mL in 50% ethanol/50% saline). On Day 0 of the study TNBS (200 μL) is administered intra-colonically via a plastic catheter with BID dosing of the vehicle, reference or test compound continuing for 2 or 4 days. During the study animals are weighed every day and stool observations are made and recorded as a score, based on stool consistency. At the time of sacrifice on Day 2 (or Day 4) the large intestine is removed and the length and weight recorded. Sections of the colon are taken for histopathology scoring to determine disease severity.
Structure (SMILES),Kd [3],IC50 [4],Kd [5],IC50 [7],IC50 [1],IC50 [2],IC50 [6],Activity in in vivo model of colonic inflammation (histopathology analysis) [8],Inflammatory cell infiltrate in the reticular and laminar propria zone [8],Ulcer grade and epithelial repair compared to the vehicle control [8],TNBS LP inflammation [8],TNBS Ulcer grade [8]
"COCCOCCOCCOc1cc(Nc2cc(Oc3ccc(NC(=O)Nc4cc(C(C)(C)C)cc(S(C)(=O)=O)c4OC)c4ccccc34)ccn2)cc(OC)c1 [Example 9, 1-(5-(tert-Butyl)-2-methoxy-3-(methylsulfonyl)phenyl)-3-(4-((2-((3-methoxy-5-(2-(2-(2-methoxyethoxy)ethoxy)ethoxy)phenyl)amino)pyridin-4-yl)oxy)naphthalen-1-yl)urea]",0.026 µM,0.0043 µM,0.0086 µM,0.052 µM,0.0427 µM,0.0035 µM,0.0094 µM,significant activity,marked reductions,marked improvements,2.9 ± 0.3,3.6 ± 0.3
"COc1c(NC(=O)Nc2ccc(Oc3ccnc(Nc4ccccc4)c3)c3ccccc23)cc(C(C)(C)C)cc1C(=O)NCCN1CCOCC1 [Example 14, 5-(tert-Butyl)-2-methoxy-N-(2-morpholinoethyl)-3-(3-(4-((2-(phenylamino)pyridin-4-yl)oxy)naphthalen-1-yl)ureido)benzamide]",–,–,–,0.135 µM,0.0392 µM,0.0033 µM,0.0163 µM,significant activity,marked reductions,–,3.6 ± 0.2,3.5 ± 0.5

# Second part, led by results:
Kd [3],IC50 [4],Kd [5],IC50 [7],Structure (SMILES),IC50 [1],IC50 [2],IC50 [6],Activity in in vivo model of colonic inflammation (histopathology analysis) [8],Inflammatory cell infiltrate in the reticular and laminar propria zone [8],Ulcer grade and epithelial repair compared to the vehicle control [8],TNBS LP inflammation [8],TNBS Ulcer grade [8]
0.011 µM,0.0086 µM,0.0036 µM,0.201 µM,"COc1c(NC(=O)Nc2ccc(Oc3ccnc(Nc4ccccc4)c3)c3ccccc23)cc(C(C)(C)C)cc1[S+](C)[O-] (racemic) [Example 12, 1-(5-(tert-Butyl)-2-methoxy-3-(methylsulfinyl)phenyl)-3-(4-((2-(phenylamino)pyridin-4-yl)oxy)naphthalen-1-yl)urea]",0.067 µM,0.0036 µM,0.0086 µM,–,–,–,–,–
–,0.0182 µM,–,0.239 µM,"COc1c(CC(N)=O)cc(C(C)(C)C)cc1NC(=O)Nc1ccc(Oc2ccnc(Nc3ccccc3)c2)c2ccccc12 [Example 13, 2-(5-(tert-Butyl)-2-methoxy-3-(3-(4-((2-(phenylamino)pyridin-4-yl)oxy)naphthalen-1-yl)ureido)phenyl)acetamide]",0.204 µM,0.0064 µM,0.0504 µM,significant activity,marked reductions,marked improvements,2.8 ± 0.5,2.6 ± 0.7
–,–,–,0.06 µM,"COc1cc(Nc2cc(Oc3ccc(NC(=O)Nc4cc(C(C)(C)C)cc(CC(N)=O)c4OC)c4ccccc34)ccn2)cc(OC)c1 [Example 30, 2-(5-(tert-Butyl)-3-(3-(4-((2-((3,5-dimethoxyphenyl)amino)pyridin-4-yl)oxy)naphthalen-1-yl)ureido)-2-methoxyphenyl)acetamide]",0.0945 µM,0.0017 µM,0.0064 µM,significant activity,marked reductions,marked improvements,2.5 ± 0.4,3.1 ± 0.4
0.0045 µM,–,0.0012 µM,0.032 µM,"COc1cc(Nc2cc(Oc3ccc(NC(=O)Nc4cc(C(C)(C)C)cc(P(C)(C)=O)c4OC)c4ccccc34)ccn2)cc(C(N)=O)c1 [Example 37, 3-((4-((4-(3-(5-(tert-butyl)-3-(dimethylphosphoryl)-2-methoxyphenyl)ureido)-naphthalen-1-yl)oxy)pyridin-2-yl)amino)-5-methoxybenzamide]",0.048 µM,0.0017 µM,0.0007 µM,–,–,–,–,–
